# Assay results as given in patent US9157904B2, “Wnt antagonists and methods of treatment and screening” (OncoMed Pharmaceuticals, Inc., priority 2010, dated 2015).
# Key:
# [1] = system: C28 colon tumor xenografts; assay: C28 colon tumor xenograft, combination with irinotecan; type: in vivo, NOD/SCID mice; details: C28 established tumors; FZD8-Fc 15 mg/kg once a week, irinotecan 15 mg/kg once a week, i.p.
# Description: The effect of FZD8-Fc in combination with a chemotherapeutic agent on the growth of C28 colon tumor xenografts was analyzed. Dissociated C28 colon tumor cells (10,000 cells) were injected subcutaneously into 6-8 week old male NOD/SCID mice. Tumors were allowed to grow for 21 days until they reached an average volume of 128 mm^3. The mice were randomized (n=10 per group) and treated with FZD8-Fc (54F03) (15 mg/kg once a week), irinotecan (15 mg/kg once a week), a combination of FZD8-Fc and irinotecan or a control antibody. Administration of the FZD8-Fc, irinotecan and control antibody was performed via injection into the intraperitoneal cavity. Tumor growth was monitored and tumor volumes were measured with electronic calipers at the indicated time points. Data are expressed as mean±S.E.M.
# [2] = Pharmacokinetics of FZD8-Fc variants in rats; details: rat, tail vein, 10 mg/kg, plasma
# Description: The pharmacokinetics of several FZD8-Fc variants were assessed in rats in a two week pharmacokinetics (PK) study. […] Sprague Dawley rats, five males in each group, were dosed with FZD8-Fc variants via the tail vein at 10 mg/kg and followed for two weeks with samples collected at time points 1, 24, 48, 72, 96, 168, 240, and 336 hours. At each time point, 1 ml of blood was collected into potassium-EDTA tubes and centrifuged. The plasma supernatants were collected and frozen until the samples were analyzed.
# The level of FZD8-Fc variant protein present in the plasma at each time point was quantified and the half-life of each FZD8-Fc variant was calculated.
# [3] = Pharmacokinetics of FZD8-Fc in rat; type: in vivo, Sprague Dawley rats; details: tail vein, plasma
# Description: The pharmacokinetics of FZD8-Fc (54F03) were assessed in rats in a two week pharmacokinetics (PK) study using doses of 2 mg/kg and 10 mg/kg. Sprague Dawley rats, five males in each group, were dosed with FZD8-Fc via the tail vein at 2 mg/kg or 10 mg/kg and followed for two weeks with samples collected at the time points 1, 24, 48, 72, 96, 168, 240, and 336 hours. At each time point, 1 ml of blood was collected into potassium-EDTA tubes and centrifuged. The plasma supernatants were collected and frozen until the samples were analyzed.
# The level of FZD8-Fc fusion protein present in the plasma at each time point was quantified and the half-life of FZD8-Fc was calculated for the two doses.
# [4] = system: PN13 tumors; assay: Alcian blue and Ki67 staining of treated PN13 tumors; type: in vivo, NOD/SCID mice; details: FZD8-Fc 15 mg/kg i.p. twice weekly, 19 days, vs control antibody
# Description: (§1) The cell differentiation capability of FZD8-Fc was also evaluated in the OMP-PN13 pancreas tumor xenograft model. Dissociated OMP-PN13 cells (50,000 per animal) were injected subcutaneously into 6-8 week old male NOD/SCID mice. Tumor growth was monitored weekly and tumor measurements were initiated once tumors were palpable. On day 40 mice with average tumor volume of 114 mm^3 were randomized into 4 groups of 10 animals each. Animals were injected with either control antibody or FZD8-Fc (15 mg/kg). Administration of the FZD8-Fc and control antibody was performed via injection into the intraperitoneal cavity, twice weekly. After 19 days of treatment, the tumors were excised and immunohistochemistry analysis was performed using standard techniques. Briefly, tumors were fixed in formalin, embedded in paraffin, and tumor sections of 4 μm thickness were cut. After deparaffinization and hydration, the tumor sections were subjected to an antigen retrieval process in Tris buffer (pH 9.5). Sections were incubated with hydrogen peroxide (Sigma-Aldrich, St Louis, Mo.) for 10 minutes to block endogenous peroxidases. Anti-Ki67 antibody (Dako, clone MIB-1) at 1:200 dilution in blocking buffer (3% NHS, 1% BSA, 0.1% Tween-20, in PBS) was added to each section and incubated for 1 hour. Slides were rinsed 3 times in PBST for 5 minutes each. […]
# [5] = system: PN13 tumors; assay: Muc16 immunohistochemistry of treated PN13 tumors; type: in vivo, NOD/SCID mice; details: vs control antibody
# Description: as §1, with “peroxidases.” for “peroxidases. Anti-Ki67 antibody (Dako, clone MIB-1) at 1:200 dilution in blocking buffer (3% NHS, 1% BSA, 0.1% Tween-20, in PBS) was added to each section and incubated for 1 hour. Slides were rinsed 3 times in PBST for 5 minutes each.”
# Tumor sections from PN13 tumors treated with control antibody or FZD8-Fc were obtained and treated as described above. […] The bound antibody was detected using the immunohistochemistry protocol described above.
# [6] = system: PN4 pancreatic tumors; assay: In vivo limiting dilution assay of treated PN4 tumors; design: species or system NOD/SCID mice; details: day 75 after injection of 30, 90, 270 cells, control 7 out of 30
# From the text: Limiting dilution assays (LDA) can be used to assess the effect of therapeutic agents on solid tumor cancer stem cells and on the tumorigenicity of a tumor comprising the cancer stem cells. Such assays can be used to determine the frequency of cancer stem cells in tumors from animals treated with the FZD8-Fc fusion protein or other agent and to compare that frequency to the frequency of cancer stem cells in tumors from control animals. Control and treated tumors from the PN4 xenograft study described above were harvested at the end of the study (day 85). The tumors were processed and dissociated into single cells. […] The human cells in the suspension were harvested, counted, and stained for cell surface markers and appropriate cell doses (30, 90, and 270 cells) in FACS buffer were mixed in a 1:1 mixture with Matrigel and injected subcutaneously in NOD/SCID mice (10 mice per cell dose per treatment group). […] At the desired time point, the percentage of mice with detectable tumors was determined in all groups injected with FZD8-Fc-treated tumor cells and compared to the percentage of mice with detectable tumors in the controls. For example, the number of mice injected with 125 control antibody-treated tumor cells that have detectable tumors is determined and compared to the number of mice injected with 125 FZD8-Fc treated tumor cells that have detectable tumors. […]
# [7] = system: C28 colon tumor; assay: C28 colon tumor xenograft, FZD8-Fc variants (Example 14); type: in vivo, NOD/SCID mice; details: C28 established tumors; 15 mg/kg i.p. twice a week
# Description: Dissociated C28 colon tumor cells (10,000 cells) were injected subcutaneously into 6-8 week old male NOD/SCID mice. Tumors were allowed to grow for 28 days until they reached an average volume of 145 mm^3. The mice were randomized (n=9 per group) and treated with FZD8-Fc variants or a control antibody at a dose of 15 mg/kg twice a week. Administration of the FZD8-Fc variants and control antibody was performed via injection into the intraperitoneal cavity. Tumor growth was monitored and tumor volumes were measured with electronic calipers at the indicated time points. Data are expressed as mean±S.E.M.
substance,measurement,setting,value
54F03: Fri domain of human FZD8 fused to human IgG1 Fc with GRA linker; SEQ ID NO:1,reduction in tumor growth over control antibody,[1],66%
same,t1/2 in hours,[2],162 h
same,half-life,[3]; 2 mg/kg,163 h
same,half-life,[3]; 10 mg/kg,157 h
same,cells expressing sialomucins (alcian blue),[4],increase in cells expressing sialomucins
same,proliferating cells denoted by expression of Ki67,[4],decrease in proliferating cells
same,cells expressing Muc16,[5],increase in cells expressing Muc16
same,tumor take rate,[6],3 mice out of 30 mice
same,reduction in tumor growth as compared to control antibody,[7],approximately 56%
